Patent US20230012570A1, “BICYCLIC COMPOUND USED AS SELECTIVE ANDROGEN RECEPTOR MODULATOR” (MEDSHINE DISCOVERY INC., priority 2019, published 2023)
Like-named read-outs stand apart in the source and are kept apart here.

Legend:
CYP3A4 = target: T1, CYP3A4 (Homo sapiens, UniProt P08684); test: Human liver microsomal CYP inhibition experiment, CYP3A4; type: in vitro ADME
T1 construct: Mixed human liver microsomes (HLM) were purchased from Corning Inc; tissue Corning Inc. or XenoTech, LLC. or other suppliers; host or cells: pooled human liver microsomes
T1 sequence (P08684 whole entry): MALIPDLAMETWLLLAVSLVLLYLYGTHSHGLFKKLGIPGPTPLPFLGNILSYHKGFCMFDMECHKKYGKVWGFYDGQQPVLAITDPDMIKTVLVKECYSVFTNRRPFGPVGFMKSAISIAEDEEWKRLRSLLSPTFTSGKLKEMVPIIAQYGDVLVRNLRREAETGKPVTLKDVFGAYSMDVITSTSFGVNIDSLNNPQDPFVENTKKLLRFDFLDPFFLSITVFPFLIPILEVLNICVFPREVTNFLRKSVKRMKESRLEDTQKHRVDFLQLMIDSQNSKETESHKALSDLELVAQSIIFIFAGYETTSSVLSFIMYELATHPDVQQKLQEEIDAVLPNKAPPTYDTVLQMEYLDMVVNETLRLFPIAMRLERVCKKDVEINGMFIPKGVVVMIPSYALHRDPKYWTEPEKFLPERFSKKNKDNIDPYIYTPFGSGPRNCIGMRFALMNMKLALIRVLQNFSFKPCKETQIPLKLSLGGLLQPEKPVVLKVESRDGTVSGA
Experimental: (§1) Experiment Embodiment 4: Human Liver Microsomal CYP Inhibition Experiment
(§2) The inhibitory effects of the test compound 3A and VK5211 on the activities of human liver microsomal cytochrome P450 isozymes (CYP1A2, CYP2C9, CYP2C19, CYP2D6 and CYP3A4) were determined.
(§3) Mixed human liver microsomes (HLM) were purchased from Corning Inc. (Steuben, New York, USA) or XenoTech, LLC. (Lenexa, Kans., USA) or other suppliers, and were stored at a temperature below −60° C. before use.
(§4) First, the test compound (10.0 mM) was gradient diluted to prepare working solution (100×final concentration), and the concentrations of the working solution were: 5.00, 1.50, 0.500, 0.150, 0.0500, 0.0150, 0.00500 mM, and a working solution of each positive inhibitor of P450 isozymes (CYP1A2, CYP2C9, CYP2C19, CYP2D6, and CYP3A4) and a specific substrate mixture thereof (5 in 1) were prepared at the same time; human liver microsomes stored in a refrigerator at a temperature lower than −60° C. were put on ice to thaw, and when all the human liver microsomes were dissolved, the microsomes were diluted with potassium phosphate buffer (PB) to prepare a working solution of a certain concentration (0.253 mg/mL). […] The concentration of metabolites produced by the probe substrate in the sample was determined by liquid chromatography-tandem mass spectrometry (LC-MS/MS) method. […]

CYP2C19 = target: T2, CYP2C19 (Homo sapiens, UniProt P33261); test: Human liver microsomal CYP inhibition experiment, CYP2C19; type: in vitro ADME
T2 construct: Mixed human liver microsomes (HLM) were purchased from Corning Inc; tissue Corning Inc. or XenoTech, LLC. or other suppliers; host or cells: pooled human liver microsomes
T2 sequence (P33261 whole entry): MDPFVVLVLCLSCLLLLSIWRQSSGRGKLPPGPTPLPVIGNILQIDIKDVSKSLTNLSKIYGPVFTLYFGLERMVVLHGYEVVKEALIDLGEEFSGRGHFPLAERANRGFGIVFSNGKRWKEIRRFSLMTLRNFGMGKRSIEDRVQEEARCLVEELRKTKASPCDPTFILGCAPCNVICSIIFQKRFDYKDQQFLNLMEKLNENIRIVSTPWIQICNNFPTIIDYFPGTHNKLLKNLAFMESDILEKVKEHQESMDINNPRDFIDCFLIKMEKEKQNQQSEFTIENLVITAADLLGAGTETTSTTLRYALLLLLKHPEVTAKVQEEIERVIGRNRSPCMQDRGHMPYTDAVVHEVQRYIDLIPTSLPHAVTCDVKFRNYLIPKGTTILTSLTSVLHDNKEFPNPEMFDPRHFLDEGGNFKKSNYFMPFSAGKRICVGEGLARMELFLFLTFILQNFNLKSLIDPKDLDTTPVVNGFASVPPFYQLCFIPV
Experimental: as §1, §2, §3, §4

[1] = Pharmacokinetic test in male SD rats, intravenous and intragastric administration, plasma LC-MS/MS; type: in vivo; conditions: rat; for AUC(0-t): read-out: Curve area (0-t) AUC0-last; for half-life: read-out: Half-life T1/2 (converted)
From the text: Experimental Embodiment 2: Pharmacokinetic Test of the Compounds of the Present Disclosure
Male SD rats were used as test animals, and LC-MS/MS method was used to determine the drug concentrations in plasma of rats at different time after intravenous and intragastric administration of compound 1A, compound 3A and compound 8A. To study the pharmacokinetic behavior of the compounds in rats and to evaluate their pharmacokinetic characteristics.
2.1 Test Drugs: Compound 1A, Compound 3A and Compound 8A
2.2 Test animals: 12 healthy adult male SD rats, divided into 6 groups with 2 rats in each group. The animal was purchased from Shanghai Sippr-BK laboratory animal Co. Ltd., and the animal production license number was SOCK (Shanghai) 2013-0016.
An appropriate amount of sample was weighed, and appropriate amounts of DMSO, polyethylene glycol-15 hydroxystearate and water were added in turn according to the volume ratio of 10:10:80, and the clarified state of 0.2 mg/mL was reached after stirring and sonication for intravenous administration.
An appropriate amount of sample was weighed and dissolved in 5% Tween 80+90% polyethylene glycol 400+5% polyvinylpyrrolidone K30 solution, and the clarified state of 0.5 mg/mL was reached after stirring and sonication for intragastric administration.
12 male SD rats were divided into 6 groups, and after fasting overnight, groups 1-3 were administered intravenously with a volume of 5 mL/kg; groups 4-6 were administered by gavage with a volume of 10 mL/kg.
After compound 1A, compound 3A and compound 8A were intravenously administered to SD rats, 40 μL of blood was collected at 0.0833, 0.25, 0.5, 1, 2, 4, 8 and 24 hours, respectively, and placed in a test tube containing 2 μL of EDTA-K2. After compound 1A and compound 3A were administered by gavage, 40 μL of blood was collected at 0.25, 0.5, 1, 2, 4, 8 and 24 hours, respectively, and placed in a test tube containing 2 μL of EDTA-K2. The tubes were centrifuged at 4000 rpm for 15 minutes to separate the plasma and stored at −60° C. Animals were allowed to eat 2 hours after administration.
The content of the test compounds in the plasma of rats after intravenous and intragastric administration was determined by LC-MS/MS method. The linear range of the method was 2.00-6000 nmol/L; plasma samples were analyzed after acetonitrile precipitation protein treatment.

CYP2C9 = target: T3, CYP2C9 (Homo sapiens, UniProt P11712); test: Human liver microsomal CYP inhibition experiment, CYP2C9; type: in vitro ADME
T3 construct: Mixed human liver microsomes (HLM) were purchased from Corning Inc; tissue Corning Inc. or XenoTech, LLC. or other suppliers; host or cells: pooled human liver microsomes
T3 sequence (P11712 whole entry): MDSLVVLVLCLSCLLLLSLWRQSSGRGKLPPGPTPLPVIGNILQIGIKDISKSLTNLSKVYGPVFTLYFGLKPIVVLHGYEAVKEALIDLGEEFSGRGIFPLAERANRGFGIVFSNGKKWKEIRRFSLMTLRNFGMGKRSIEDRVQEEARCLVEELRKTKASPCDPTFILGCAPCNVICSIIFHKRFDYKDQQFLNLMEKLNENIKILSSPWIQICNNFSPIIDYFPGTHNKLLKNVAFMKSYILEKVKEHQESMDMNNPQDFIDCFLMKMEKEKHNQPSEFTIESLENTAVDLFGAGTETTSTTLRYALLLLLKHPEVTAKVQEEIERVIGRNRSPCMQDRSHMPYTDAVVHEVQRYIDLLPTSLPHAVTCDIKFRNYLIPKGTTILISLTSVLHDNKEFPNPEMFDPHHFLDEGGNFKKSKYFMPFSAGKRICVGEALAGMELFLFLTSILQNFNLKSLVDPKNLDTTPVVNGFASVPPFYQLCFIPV
Experimental: as §1, §2, §3, §4

[2] = intravenous administration, dose 1.1 (1A), 0.69 (3A), 0.716 (8A) mg/kg
[3] = po, intragastric administration, dose 4.92 (1A), 4.2 (3A), 4.59 (8A) mg/kg

## N#Cc1ccc(N2CC3CC3C2C(O)C(F)(F)F)cc1Cl (single isomer, unassigned) [Compound 3A]
CYP3A4
  IC50: > 50 µM
CYP2C19
  IC50: 12.1 µM
[1]; intravenous administration, dose 1.1 (1A), 0.69 (3A), 0.716 (8A) mg/kg, read-out: Apparent volume of distribution Vdss
  Vd: 1.83 L/kg
[1]; intravenous administration, dose 1.1 (1A), 0.69 (3A), 0.716 (8A) mg/kg, read-out: Clearance rate Cl
  clearance: 28.6 mL/min/kg
[1]; intravenous administration, dose 1.1 (1A), 0.69 (3A), 0.716 (8A) mg/kg, read-out: Curve area (0-inf) AUC0-inf
  AUC(0-inf): 1.29 µM·h
[1]; [2]
  AUC(0-t): 1.28 µM·h
  half-life: 1.35 h
[1]; oral, intragastric vs intravenous administration, read-out: Bioavailability F
  bioavailability: 16%
[1]; po, intragastric administration, dose 4.92 (1A), 4.2 (3A), 4.59 (8A) mg/kg, read-out: Blood drug concentration Cmax
  Cmax: 262 nM
[1]; [3]
  AUC(0-t): 1.25 µM·h
  half-life: 1.8 h
[1]; po, intragastric administration, dose 4.92 (1A), 4.2 (3A), 4.59 (8A) mg/kg, read-out: Peak time Tmax
  Tmax: 3 h
CYP2C9
  IC50: > 50 µM
